According to PubChem BioAssay AID2060500 (Molecular Pharmacology Branch, DTP, NCI, 2025):

System: 596521-263-R-J1-PDC complex spheroids, viability % of control
Assay: Anticancer human tumor 596521-263-R-J1-PDC patient-derived soft tissue sarcoma cell line growth inhibition [GQUAD]
Details: for IC50: curve of first compound; for viability, T/C: stronger effect = lower value
Summary of the method: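 Multi-cell-type spheroids of tumor cells with HUVEC and mesenchymal stem cells, treated with drug combinations. Concentrations descend in half-log steps from near clinical Cmax, or from 10 microM where Cmax is unknown; viability read-out.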

[1] = second compound 0.0316 µM, first compound 0.0316 µM
[2] = second compound 0.0316 µM, first compound 0.316 µM
[3] = second compound 0.1 µM, first compound 0.0316 µM
[4] = second compound 0.1 µM, first compound 0.316 µM
[5] = second compound 0.316 µM, first compound 0.0316 µM
[6] = second compound 0.316 µM, first compound 0.316 µM
[7] = second compound 1 µM, first compound 0.0316 µM
[8] = second compound 1 µM, first compound 0.316 µM
[9] = second compound 3.16 µM, first compound 0.0316 µM
[10] = second compound 3.16 µM, first compound 0.316 µM
[11] = second compound 10 µM, first compound 0.0316 µM
[12] = second compound 10 µM, first compound 0.316 µM
[13] = second compound 0.0316 µM, first compound 0.1 µM
[14] = second compound 0.0316 µM, first compound 1 µM
[15] = second compound 0.0316 µM, first compound 3.16 µM
[16] = second compound 0.0316 µM, first compound 10 µM
[17] = second compound 0.1 µM, first compound 0.1 µM
[18] = second compound 0.1 µM, first compound 1 µM
[19] = second compound 0.1 µM, first compound 3.16 µM
[20] = second compound 0.1 µM, first compound 10 µM
[21] = second compound 0.316 µM, first compound 0.1 µM
[22] = second compound 0.316 µM, first compound 1 µM
[23] = second compound 0.316 µM, first compound 3.16 µM
[24] = second compound 0.316 µM, first compound 10 µM
[25] = second compound 1 µM, first compound 0.1 µM
[26] = second compound 1 µM, first compound 1 µM
[27] = second compound 1 µM, first compound 3.16 µM
[28] = second compound 1 µM, first compound 10 µM
[29] = second compound 3.16 µM, first compound 0.1 µM
[30] = second compound 3.16 µM, first compound 1 µM
[31] = second compound 3.16 µM, first compound 3.16 µM
[32] = second compound 3.16 µM, first compound 10 µM
[33] = second compound 10 µM, first compound 0.1 µM
[34] = second compound 10 µM, first compound 1 µM
[35] = second compound 10 µM, first compound 3.16 µM
[36] = second compound 10 µM, first compound 10 µM
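Also: spheroids exposed to drugs for 7 days before viability reading.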
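For viability, T/C in this document: 100% = DMSO vehicle control viability.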

`Cn1ncnc1[C@H]1c2n[nH]c(=O)c3cc(F)cc(c23)N[C@@H]1c1ccc(F)cc1` + CN(C)c1ccc(Nc2c3ccc(NC(=O)CCN4CCCC4)cc3nc3cc(NC(=O)CCN4CCCC4)ccc23)cc1 gave an IC50 (second compound 0.0316 µM) of over 316 nM, an IC50 (second compound 0.1 µM) of over 316 nM and an IC50 (second compound 0.316 µM) of over 316 nM. It also gave an IC50 (second compound 1 µM) of over 316 nM, an IC50 (second compound 3.16 µM) of over 316 nM and an IC50 (second compound 10 µM) of over 316 nM. The viability, T/C (second compound 0.0316 µM, first compound 0.000999 µM) was 106%, the viability, T/C (second compound 0.0316 µM, first compound 0.00316 µM) was 89.4% and the viability, T/C (second compound 0.0316 µM, first compound 0.00999 µM) was 90.6%. For the same compound, the viability, T/C [1] was 84.8%, the viability, T/C (second compound 0.0316 µM, first compound 0.0999 µM) was 99.6% and the viability, T/C [2] was 80.5%. For the same compound, the viability, T/C (second compound 0.1 µM, first compound 0.000999 µM) was 98.4%, the viability, T/C (second compound 0.1 µM, first compound 0.00316 µM) was 92.1% and the viability, T/C (second compound 0.1 µM, first compound 0.00999 µM) was 96.6%. It also gave a viability, T/C [3] of 94.7%, a viability, T/C (second compound 0.1 µM, first compound 0.0999 µM) of 86.6% and a viability, T/C [4] of 93.5%. It also gave a viability, T/C (second compound 0.316 µM, first compound 0.000999 µM) of 104%, a viability, T/C (second compound 0.316 µM, first compound 0.00316 µM) of 97.9% and a viability, T/C (second compound 0.316 µM, first compound 0.00999 µM) of 102%. For the same compound, the viability, T/C [5] was 94.6%, the viability, T/C (second compound 0.316 µM, first compound 0.0999 µM) was 83.4% and the viability, T/C [6] was 80%. For the same compound, the viability, T/C (second compound 1 µM, first compound 0.000999 µM) was 92.4%, the viability, T/C (second compound 1 µM, first compound 0.00316 µM) was 89.5% and the viability, T/C (second compound 1 µM, first compound 0.00999 µM) was 99.8%. It also gave a viability, T/C [7] of 85.1%, a viability, T/C (second compound 1 µM, first compound 0.0999 µM) of 95% and a viability, T/C [8] of 76.1%. The viability, T/C (second compound 3.16 µM, first compound 0.000999 µM) was 94%, the viability, T/C (second compound 3.16 µM, first compound 0.00316 µM) was 97% and the viability, T/C (second compound 3.16 µM, first compound 0.00999 µM) was 98.4%. For the same compound, the viability, T/C [9] was 85.5%, the viability, T/C (second compound 3.16 µM, first compound 0.0999 µM) was 92.6% and the viability, T/C [10] was 80.8%. For the same compound, the viability, T/C (second compound 10 µM, first compound 0.000999 µM) was 70.1%, the viability, T/C (second compound 10 µM, first compound 0.00316 µM) was 58.9% and the viability, T/C (second compound 10 µM, first compound 0.00999 µM) was 67.3%. For the same compound, the viability, T/C [11] was 64.9%, the viability, T/C (second compound 10 µM, first compound 0.0999 µM) was 61.5% and the viability, T/C [12] was 60.2%.
Work on `O=C(c1cc(Cc2n[nH]c(=O)c3ccccc23)ccc1F)N1CCN(C(=O)C2CC2)CC1` + CN(C)c1ccc(Nc2c3ccc(NC(=O)CCN4CCCC4)cc3nc3cc(NC(=O)CCN4CCCC4)ccc23)cc1 yielded an IC50 (second compound 0.0316 µM) of over 10000 nM, an IC50 (second compound 0.1 µM) of over 10000 nM and an IC50 (second compound 0.316 µM) of over 10000 nM. The IC50 (second compound 1 µM) was over 10000 nM, the IC50 (second compound 3.16 µM) was over 10000 nM and the IC50 (second compound 10 µM) was over 10000 nM. For the same compound, the viability, T/C [1] was 112%, the viability, T/C [13] was 106% and the viability, T/C [2] was 101%. For the same compound, the viability, T/C [14] was 104%, the viability, T/C [15] was 86.2% and the viability, T/C [16] was 68%. It also gave a viability, T/C [3] of 108%, a viability, T/C [17] of 89.3% and a viability, T/C [4] of 97.4%. For the same compound, the viability, T/C [18] was 99%, the viability, T/C [19] was 88.3% and the viability, T/C [20] was 67.9%. It also gave a viability, T/C [5] of 114%, a viability, T/C [21] of 103% and a viability, T/C [6] of 101%. For the same compound, the viability, T/C [22] was 103%, the viability, T/C [23] was 88.5% and the viability, T/C [24] was 74.3%. The viability, T/C [7] was 108%, the viability, T/C [25] was 98.2% and the viability, T/C [8] was 109%. For the same compound, the viability, T/C [26] was 99.2%, the viability, T/C [27] was 94.6% and the viability, T/C [28] was 69.2%. It also gave a viability, T/C [9] of 110%, a viability, T/C [29] of 89.6% and a viability, T/C [10] of 90.8%. It also gave a viability, T/C [30] of 89.9%, a viability, T/C [31] of 91% and a viability, T/C [32] of 70.8%. It also gave a viability, T/C [11] of 70.4%, a viability, T/C [33] of 62.2% and a viability, T/C [12] of 76.7%. The viability, T/C [34] was 72.4%, the viability, T/C [35] was 66.5% and the viability, T/C [36] was 59.9%.
`O=C(NO)c1cnc(N2CCN(S(=O)(=O)c3ccc4ccccc4c3)CC2)nc1` + CN(C)c1ccc(Nc2c3ccc(NC(=O)CCN4CCCC4)cc3nc3cc(NC(=O)CCN4CCCC4)ccc23)cc1 was tested, and the IC50 (second compound 0.0316 µM) was 112 nM, the IC50 (second compound 0.1 µM) was 97.3 nM and the IC50 (second compound 0.316 µM) was 126 nM. It also gave an IC50 (second compound 1 µM) of 112 nM, an IC50 (second compound 3.16 µM) of 76.9 nM and an IC50 (second compound 10 µM) of under 31.6 nM. It also gave a viability, T/C [1] of 77.3%, a viability, T/C [13] of 54.4% and a viability, T/C [2] of 7.95%. The viability, T/C [14] was 0.72%, the viability, T/C [15] was 0.35% and the viability, T/C [16] was 0.33%. For the same compound, the viability, T/C [3] was 76.3%, the viability, T/C [17] was 49.4% and the viability, T/C [4] was 9.87%. The viability, T/C [18] was 0.62%, the viability, T/C [19] was 0.38% and the viability, T/C [20] was 0.34%. For the same compound, the viability, T/C [5] was 76.5%, the viability, T/C [21] was 60.9% and the viability, T/C [6] was 7.1%. It also gave a viability, T/C [22] of 0.61%, a viability, T/C [23] of 0.29% and a viability, T/C [24] of 0.34%. It also gave a viability, T/C [7] of 74.4%, a viability, T/C [25] of 54.7% and a viability, T/C [8] of 7.49%. It also gave a viability, T/C [26] of 0.53%, a viability, T/C [27] of 0.35% and a viability, T/C [28] of 1.39%. For the same compound, the viability, T/C [9] was 65.4%, the viability, T/C [29] was 45.4% and the viability, T/C [10] was 7.07%. It also gave a viability, T/C [30] of 0.61%, a viability, T/C [31] of 0.37% and a viability, T/C [32] of 0.78%. The viability, T/C [11] was 48.2%, the viability, T/C [33] was 35.6% and the viability, T/C [12] was 3.88%. For the same compound, the viability, T/C [34] was 0.37%, the viability, T/C [35] was 0.37% and the viability, T/C [36] was 0.34%.
